System: NCI-H719 tumor spheroids, viability
Assay: Anticancer human tumor NCI-H719 cell line growth inhibition;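 note: spheroids exposed to compounds for seven days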;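 for viability, T/C: percent viability relative to DMSO vehicle control as 100%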
Details: spheroids with HUVEC and MSC; for IC50: curve of first compound; for viability, T/C: stronger effect = lower value
In short: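 Single agents and combinations were tested on spheroids built from tumor cells plus HUVEC and hMSC, at half-log dilutions starting at or near clinical Cmax, else 10 microM; final DMSO 0.25% (v/v).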

[1] = second compound 0.003 µM, first compound 0.0316 µM
[2] = second compound 0.003 µM, first compound 0.1 µM
[3] = second compound 0.003 µM, first compound 0.316 µM
[4] = second compound 0.003 µM, first compound 1 µM
[5] = second compound 0.003 µM, first compound 3.16 µM
[6] = second compound 0.003 µM, first compound 10 µM
[7] = second compound 0.00949 µM, first compound 0.0316 µM
[8] = second compound 0.00949 µM, first compound 0.1 µM
[9] = second compound 0.00949 µM, first compound 0.316 µM
[10] = second compound 0.00949 µM, first compound 1 µM
[11] = second compound 0.00949 µM, first compound 3.16 µM
[12] = second compound 0.00949 µM, first compound 10 µM
[13] = second compound 0.03 µM, first compound 0.0316 µM
[14] = second compound 0.03 µM, first compound 0.1 µM
[15] = second compound 0.03 µM, first compound 0.316 µM
[16] = second compound 0.03 µM, first compound 1 µM
[17] = second compound 0.03 µM, first compound 3.16 µM
[18] = second compound 0.03 µM, first compound 10 µM
[19] = second compound 0.0949 µM, first compound 0.0316 µM
[20] = second compound 0.0949 µM, first compound 0.1 µM
[21] = second compound 0.0949 µM, first compound 0.316 µM
[22] = second compound 0.0949 µM, first compound 1 µM
[23] = second compound 0.0949 µM, first compound 3.16 µM
[24] = second compound 0.0949 µM, first compound 10 µM
[25] = second compound 0.3 µM, first compound 0.0316 µM
[26] = second compound 0.3 µM, first compound 0.1 µM
[27] = second compound 0.3 µM, first compound 0.316 µM
[28] = second compound 0.3 µM, first compound 1 µM
[29] = second compound 0.3 µM, first compound 3.16 µM
[30] = second compound 0.3 µM, first compound 10 µM

CC(C)n1c(=O)n(C)c2cnc3cc(F)c(-c4ccc(OCCCN5CCCCC5)nc4)cc3c21 + CC[C@@]1(O)C(=O)OCc2c1cc1n(c2=O)Cc2cc3c(CN(C)C)c(O)ccc3nc2-1
IC50 (second compound 0.003 µM): < 31.6 nM | IC50 (second compound 0.00949 µM): < 31.6 nM | IC50 (second compound 0.03 µM): < 31.6 nM | IC50 (second compound 0.0949 µM): < 31.6 nM | IC50 (second compound 0.3 µM): < 31.6 nM | viability, T/C [1]: 33.1% | viability, T/C [2]: 48.3% | viability, T/C [3]: 61.5% | viability, T/C [4]: 63.7% | viability, T/C [5]: 67.9% | viability, T/C [6]: 50.5% | viability, T/C [7]: 8.54% | viability, T/C [8]: 8.8% | viability, T/C [9]: 7.39% | viability, T/C [10]: 6.31% | viability, T/C [11]: 16.9% | viability, T/C [12]: 12.7% | viability, T/C [13]: 7.27% | viability, T/C [14]: 6.04% | viability, T/C [15]: 7.74% | viability, T/C [16]: 6.96% | viability, T/C [17]: 8.35% | viability, T/C [18]: 6.27% | viability, T/C [19]: 7.12% | viability, T/C [20]: 6.79% | viability, T/C [21]: 7.51% | viability, T/C [22]: 7.66% | viability, T/C [23]: 7.78% | viability, T/C [24]: 6.17% | viability, T/C [25]: 8.38% | viability, T/C [26]: 7.86% | viability, T/C [27]: 8.29% | viability, T/C [28]: 8.95% | viability, T/C [29]: 8.79% | viability, T/C [30]: 5.92%

COc1ccc([C@@H](O)c2cc(-c3ncnc4cc(N5CCOCC5)ccc34)c(F)cc2Cl)nn1 + CC[C@@]1(O)C(=O)OCc2c1cc1n(c2=O)Cc2cc3c(CN(C)C)c(O)ccc3nc2-1
IC50 (second compound 0.003 µM): < 31.6 nM | IC50 (second compound 0.00949 µM): < 31.6 nM | IC50 (second compound 0.03 µM): < 31.6 nM | IC50 (second compound 0.0949 µM): < 31.6 nM | IC50 (second compound 0.3 µM): < 31.6 nM | viability, T/C [1]: 42.3% | viability, T/C [2]: 46.7% | viability, T/C [3]: 42.6% | viability, T/C [4]: 38.4% | viability, T/C [5]: 30.1% | viability, T/C [6]: 10.6% | viability, T/C [7]: 8.42% | viability, T/C [8]: 6.63% | viability, T/C [9]: 6.02% | viability, T/C [10]: 6.07% | viability, T/C [11]: 6.61% | viability, T/C [12]: 5.88% | viability, T/C [13]: 5.79% | viability, T/C [14]: 6.19% | viability, T/C [15]: 5.16% | viability, T/C [16]: 5.17% | viability, T/C [17]: 4.89% | viability, T/C [18]: 3.08% | viability, T/C [19]: 6.51% | viability, T/C [20]: 7.08% | viability, T/C [21]: 5.96% | viability, T/C [22]: 5.16% | viability, T/C [23]: 3.45% | viability, T/C [24]: 1.55% | viability, T/C [25]: 7.33% | viability, T/C [26]: 7.08% | viability, T/C [27]: 6.09% | viability, T/C [28]: 3.58% | viability, T/C [29]: 1.58% | viability, T/C [30]: 1.36%

O=C(c1cc(Cc2n[nH]c(=O)c3ccccc23)ccc1F)N1CCN(C(=O)C2CC2)CC1 + COc1cc2c(cc1O)CCNC21CSC2c3c(OC(C)=O)c(C)c4c(c3C(COC1=O)N1C(O)C3Cc5cc(C)c(OC)c(O)c5C(C21)N3C)OCO4
IC50 (second compound 30 pM): 356 nM | IC50 (second compound 94.9 pM): < 94.9 nM | IC50 (second compound 0.0003 µM): < 94.9 nM | IC50 (second compound 0.000949 µM): < 94.9 nM | IC50 (second compound 0.003 µM): < 94.9 nM | viability, T/C (second compound 30 pM, first compound 0.0949 µM): 67% | viability, T/C (second compound 30 pM, first compound 0.3 µM): 48.7% | viability, T/C (second compound 30 pM, first compound 0.949 µM): 41.7% | viability, T/C (second compound 30 pM, first compound 3 µM): 22.3% | viability, T/C (second compound 30 pM, first compound 9.49 µM): 12.5% | viability, T/C (second compound 30 pM, first compound 30 µM): 8.97% | viability, T/C (second compound 94.9 pM, first compound 0.0949 µM): 23.4% | viability, T/C (second compound 94.9 pM, first compound 0.3 µM): 13.7% | viability, T/C (second compound 94.9 pM, first compound 0.949 µM): 14% | viability, T/C (second compound 94.9 pM, first compound 3 µM): 13.3% | viability, T/C (second compound 94.9 pM, first compound 9.49 µM): 13.3% | viability, T/C (second compound 94.9 pM, first compound 30 µM): 6.02% | viability, T/C (second compound 0.0003 µM, first compound 0.0949 µM): 10.9% | viability, T/C (second compound 0.0003 µM, first compound 0.3 µM): 8.6% | viability, T/C (second compound 0.0003 µM, first compound 0.949 µM): 11.6% | viability, T/C (second compound 0.0003 µM, first compound 3 µM): 11.6% | viability, T/C (second compound 0.0003 µM, first compound 9.49 µM): 8.94% | viability, T/C (second compound 0.0003 µM, first compound 30 µM): 6.85% | viability, T/C (second compound 0.000949 µM, first compound 0.0949 µM): 6.97% | viability, T/C (second compound 0.000949 µM, first compound 0.3 µM): 8.6% | viability, T/C (second compound 0.000949 µM, first compound 0.949 µM): 8.56% | viability, T/C (second compound 0.000949 µM, first compound 3 µM): 7.26% | viability, T/C (second compound 0.000949 µM, first compound 9.49 µM): 5.7% | viability, T/C (second compound 0.000949 µM, first compound 30 µM): 4.86% | viability, T/C (second compound 0.003 µM, first compound 0.0949 µM): 0.61% | viability, T/C (second compound 0.003 µM, first compound 0.3 µM): 0.45% | viability, T/C (second compound 0.003 µM, first compound 0.949 µM): 0.63% | viability, T/C (second compound 0.003 µM, first compound 3 µM): 0.7% | viability, T/C (second compound 0.003 µM, first compound 9.49 µM): 0.69% | viability, T/C (second compound 0.003 µM, first compound 30 µM): 1.37%

From PubChem BioAssay AID1845212 (Molecular Pharmacology Branch, DTP, NCI, 2023)
